The test system of one test is Akt/PKB. As to the kind of experiment: Akt/PKB S473 phosphorylation in serum-stimulated cells (P13K survival pathway). The test is classed as cell-based, human. The conditions noted are these: for Akt/PKB phosphorylation in serum-stimulated cells: BR293, MCF-7 and MDA-MB-468 cells, Wortmannin 200 nM, AHLs 100 μM. How it is done:
Cell lysates were then prepared and analysed by Western blotting for Akt/PKB phosphorylation with an antibody specific for Akt/PKB phosphorylated on S473 (p-Akt, upper panel) and subsequently for total Akt/PKB content with an antibody for Akt/PKB (lower panel).
In the bottom section of FIG. 21, BR293 cells were serum-starved (lane 1) or starved and stimulated with 10% FCS for 2 hours alone (lane 2) or in the presence of increasing concentrations of OdDHL (lanes 3-6) or 100 μM OHHL (lane 7) or 200 nM Wortmannin (lane 8). Cell lysates were prepared and analysed by Western blotting for Akt/PKB phosphorylation with an antibody specific for Akt/PKB phosphorylated on S473 (upper panel) and subsequently for total Alt/PKB content with an antibody for Akt/PKB (lower panel).

The subject of the next test is MCF-7 cells. As to the kind of experiment: DAPI staining, confocal microscopy (apoptosis). Particulars: growing cells treated; 100 μM (FIG. 17). The test is classed as cell-based, human. How it is done:
(§1) OdDHL induces apoptosis of BC cells (a) MCF-7 cells were cultured in full medium alone or in the presence of 1001M OdDHL or 100 μM OHHL. […] Left-hand panels show DAPI, right-hand panels show the corresponding phase contrast and middle panels the image overlays. (b) MDA-MB-468 cells were cultured in full medium alone or in the presence of 100 μM OdDHL or 100 μM OHHL. After 18 hours cells were fixed, stained and examined as in (a). (c) BR293, MCF-7 and MDA-MD-468 cells were cultured in full medium alone (lanes 1, 3, 5) or in the presence of 100 μM OdDHL (lanes 2, 4, 6) or 400 μM etoposide (lane 7). After 18 hours cells were lysed and analysed for PARP cleavage by Western blotting with an anti-PARP antibody. Full length PARP is labelled and the lower arrow indicates the major caspase cleavage fragment.

The next test relates to murine STAT3. As to the kind of experiment: STAT3-dependent luciferase reporter (SIE2-luc) in transfected COS-1 cells. It counts as cell-based. Particulars: COS-1 cells transfected with murine STAT3.
Another test deals with ERKs. As to the kind of experiment: ERK phosphorylation (Western blotting). Particulars: for activation of ERKs by TPA (phosphorylation of ERK½): BR293 cells; for activation of ERKs in response to serum: result not shown. It counts as cell-based, human. How it is done:
ERKs are unaffected by OdDHL (a) BR293 cells were serum-starved (lane 1) or starved and stimulated with TPA for 30 min alone (lane 2) or in the presence of increasing concentrations of OdDHL (lanes 3-6) or 100 μM OHHL (lane 7). Cell lysates were prepared and analysed by Western blotting for ERK phosphorylation with an antibody specific for phospho-ERK½ (upper panel) and for ERK content with an antibody against ERKs (lower panel). (b) BR293 cells were serum-starved (lane 1) or starved and stimulated with Anisomycin for 30 min alone (lane 2) or in the presence of increasing concentrations of OdDHL (lanes 3-6) or 100 μM OHHL (lane 7). Cell lysates were prepared and analysed by Western blotting for JNK/SAPK phosphorylation with an antibody specific for phospho-JNKs (upper panel) and for SAPK/JNK content with an antibody against JNKs (lower panel). (c) BR293 cells were treated as described in (b) and lysates were analysed by Western blotting for p38^MAPK phosphorylation with an antibody specific for phospho-p38 (upper panel) and for p38 content with an antibody against p38 (lower panel).
In general terms: In western blotting, separated proteins are transferred to a membrane and probed.

The test system of a further test is STAT1 and 3. As to the kind of experiment: STAT complex formation in serum-starved cells treated with AHL alone (EMSA). It counts as cell-based, human. The conditions noted are these: serum-starved BR293 cells; up to 2 h. The text has this: Cells were lysed and the DNA-binding activity of STAT1 and 3 was examined by EMSA.
A general note: A gel shift assay detects complexes by their altered migration in electrophoresis.

For a further test, the system named is MDA-MB-468 cells. As to the kind of experiment: DAPI staining, confocal microscopy (apoptosis). It counts as cell-based, human. The conditions noted are these: growing cells treated; 100 μM (FIG. 17). How it is done:
as §1, with “After 18 hours cells were fixed, stained and examined as in (a).” left out

Description for murine STAT3: (c) COS-1 cells were transfected with an expression vector for STAT3, a STAT3-responsive luciferase reporter (SIE2-luc) and a control gene for β-galactosidase. […] After 6 hours cells were harvsted and reporter gene expression analysed. Results are normalised against β-galactosidase values and expressed as averages +/−SD (n=3).

On to `CCCCCCCCCC(=O)CC(=O)N[C@H]1CCOC1=O` [OdDHL, N-(3-oxo-dodecanoyl)-L-homoserine lactone], for which the “Akt/PKB phosphorylation in serum-stimulated cells” value in the test with Akt/PKB was “blocked phosphorylation of Akt/PKB to a similar degree as Wortmannin”. In addition, the “effective concentration for blocking Akt/PKB phosphorylation” value in the test on Akt/PKB (titration in BR293 cells) was “above 50 μM”. Moreover, the “nuclear integrity by DAPI staining” value with MCF-7 cells and in the test on MDA-MB-468 cells was “nuclear disruption” in each case. In the test on murine STAT3, the “EGF-stimulated STAT3-dependent reporter gene expression, effect of co-treatment” value is “augmented”. Further, the “activation of ERKs by TPA (phosphorylation of ERK½)” value with ERKs is reported as “Neither OdDHL nor OHHL had any effect”. For the same compound, the “activation of ERKs in response to serum” value with ERKs is recorded as “Neither OdDHL nor OHHL had any effect”. For the same compound, the “STAT complex formation by AHL alone” value in the test on STAT1 and 3 is recorded as “did not induce STAT complex formation”.

Regarding `CCCC(=O)CC(=O)N[C@H]1CCOC1=O` [OHHL, N-(3-oxohexanoyl)-L-homoserine lactone, reference compound], in the test on Akt/PKB, the “Akt/PKB phosphorylation in serum-stimulated cells” value was “had no effect”. The “nuclear integrity by DAPI staining” value in the test on MCF-7 cells and in the test with MDA-MB-468 cells was “unaffected” each time. For the same compound, in the test with murine STAT3, the “EGF-stimulated STAT3-dependent reporter gene expression, effect of co-treatment” value is “had no effect”. The “activation of ERKs by TPA (phosphorylation of ERK½)” value with ERKs is “Neither OdDHL nor OHHL had any effect”. Besides, the “activation of ERKs in response to serum” value in the test on ERKs is “Neither OdDHL nor OHHL had any effect”. Further, the “STAT complex formation by AHL alone” value with STAT1 and 3 is listed as “did not induce STAT complex formation”.

(Values after patent US20040259942A1, “Modulation of stat activity” (priority 2001, published 2004).)
